Reference: US11555031B2, “Compounds and methods for regulating insulin secretion” (The Broad Institute, Inc., priority 2017, dated 2023)
“Also recorded” adds a separate entry of the source.

Assays:
[1] = system: INS-1E cells; test: Luciferase Insulin Secretion Assay (proinsulin-Gaussia luciferase reporter); assay type: cell-based, rat; conditions: INS-1E cells; 2.8 mM vs 16.7 mM glucose
Text: A high-throughput luminescent insulin secretion assay was developed and performed to identify compounds that amplified insulin secretion only in the presence of a permissive glucose environment (FIG. 3). The assay used in compound screening is described in International Patent Publication No. WO2013070796A3, PCT/US2012/063982, and in Burns et al., High-Throughput Luminescent Reporter of Insulin Secretion for Discovering Regulators of Pancreatic Beta-Cell Function. Cell Metab. 2015 Jan. 6; 21(1):126-37.
The assay is a luminescent insulin secretion assay created by inserting Gaussia luciferase within the C-peptide portion of the insulin prohormone. Gaussia luciferase was chosen because of its small size and bright luciferase signal. To ensure full activity of the luciferase, a version was used that was codon-optimized for expression in mammalian cells. The enzyme was flanked with additional cleavage sites for prohormone convertase 2 (PC2), such that no extra amino acids should be present on the ends of the enzyme after processing within the vesicles (FIG. 4). Rat (INS-1E; Merglen et al., 2004) beta-cell lines stably expressing the reporter construct were generated. Assays using this cell type are referred to herein as Luciferase Insulin Secretion Assay.
A search for glucose-dependent insulin secretagogues was conducting by screening 384,216 compounds at a single concentration (10 μM) in duplicate using the Luciferase Insulin Secretion Assay, to identify those that increase insulin secretion only in the presence of high glucose (11.1 mM) (FIG. 6). These assays were performed in 1536 well format. A Z′ factor of 0.35 was obtained with respect the positive control (300 μM IBMX). The cutoff value selected was 45% activation, which was 3-4 standard deviations above background (solid uppermost line; FIG. 6).
For standard secretion assays, INS-1E cells were plated in 96-well format, preincubated for 1 hr in Krebs Ringer Buffer (KRB) with 2.8 mM glucose, and then stimulated for 1 hr in fresh KRB containing varying amounts of glucose and compounds. Insulin or C-peptide concentration was determined using an ELISA (Mercodia), following the manufacturer's protocol. Luciferase activity was determined from the same samples by adding the coelenterazine substrate to the supernatant to a final concentration of 10 μM and reading on a standard plate reader (BioTek).
INS-1E cells were expanded to 80% confluence in their growth medium, washed once in PBS, and preincubated for 1 hr at 37° C. in KRB with 2.8 mM glucose. Cells were then dissociated, spun at 300×g for 2 min, resuspended in fresh KRB without glucose, and filtered through 40 μm mesh (Becton Dickinson). Next, the cells were counted and diluted in KRB to 1×10^6 cells per ml, and glucose was added as required for each experiment. Cells were then seeded in 384-well format, 3×10^4 cells in 30 μl per well, using a Multidrop Combi device (Thermo Scientific). Compounds were pinned into each well using a Vario robot (CyBio) to a final concentration of 30 μM, and the plates were then incubated for 2 hr at 37° C. For assays involving a transfer step, the plates were then centrifuged at 300×g for 2 min, and 20 μl of supernatant was transferred to a new 384-well plate. Coelenterazine substrate was then added to a final concentration of 10 μM, and luciferase activity was determined using a standard plate reader (BioTek).

[2] = target: T1, pancreatic glucokinase (Homo sapiens, UniProt P35557); test: Glucokinase activation assay (ATP level); assay type: biochemical; conditions: ATP level readout; GK-A positive control
T1 sequence (P35557 1-465): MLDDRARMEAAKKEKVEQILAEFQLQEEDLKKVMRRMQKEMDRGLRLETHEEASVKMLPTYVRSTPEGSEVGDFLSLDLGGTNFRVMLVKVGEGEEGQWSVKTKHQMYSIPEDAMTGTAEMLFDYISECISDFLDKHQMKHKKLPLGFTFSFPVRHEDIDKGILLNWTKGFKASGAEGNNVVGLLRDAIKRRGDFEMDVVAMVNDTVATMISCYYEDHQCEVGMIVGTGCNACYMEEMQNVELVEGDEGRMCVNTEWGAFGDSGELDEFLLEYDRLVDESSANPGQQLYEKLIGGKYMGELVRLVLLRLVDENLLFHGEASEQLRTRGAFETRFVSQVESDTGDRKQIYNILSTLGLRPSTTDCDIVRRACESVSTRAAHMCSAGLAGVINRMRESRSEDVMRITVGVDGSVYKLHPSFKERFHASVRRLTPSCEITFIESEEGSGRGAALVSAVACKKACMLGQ
Text: FIG. 11 depicts the lack of effect of Compound 8 on glucokinase activity in cells treated with the indicated compounds. The assay is based on the measurement of ATP level. In presence of GK we observe a reduction of level of ATP with respect to the negative control (DMSO).
To rule out the possibility of Compound 8 acting as a glucokinase agonist, another well-established mechanism of augmenting insulin secretion, the compound was subjected to a glucokinase activation assay (FIG. 11).

## Cc1cccc(NC(=O)c2ccc(OCc3c(C)noc3C)cc2)c1C [Compound 8]
[1]
  glucose-dependent (glucose-stimulated) insulin secretion, luciferase reporter: significant increase in glucose-dependent insulin secretion; also recorded: dose-dependent effect; also recorded: more effective than even the positive control, forskolin
[2]
  glucokinase activation: did not show any significant activation effect; also recorded: no change in assay signal
